Details of data set [1]: method as in PMID 12076989. The conditions noted are these: after co-administration of diltiazem with saxagliptin; cited from earlier work.
The next data set has as its system PDE5. The conditions noted are these: relative to sildenafil; cited from earlier work.
For data set [2] the following is noted: independent of total drug concentrations; cited from earlier work.
The conditions of data set [3]: cited from earlier work.
The next data set deals with isolated aorta rings. The conditions noted are these: cited from earlier work.
For data set [4] the following is noted: healthy subjects and patients with type 2 diabetes; cited from earlier work.
Data set [5] can be described thus: Pharmacodynamic parameters: blood glucose levels (Gmax, AUCg0-t) in healthy volunteers. The data set is classed as in vivo, human. The procedure: (§1) Blood glucose levels were measured for all volunteers on the ninth and the thirteenth day before dosing and at 0.5, 0.75, 1, 1.5, 2, 2.5, 3, 12, and 24 h; the main outcome measures were maximum plasma glucose concentration (Gmax) and the area under the blood glucose concentration–time curve (AUCg0-t). Blood pressure (systolic and diastolic) and heart rate were measured before dosing and at 2, 4, 6, 8, and 10 h after drug administration.

On the set-up of data set [6]: method as in PMID 33459228. The conditions noted are these: cited from earlier work.
Data set [7] can be described thus: Safety and tolerability: adverse effects, blood pressure, pulse rate in healthy volunteers. The format is in vivo, human. Particulars: for incidence of reported headache: 18 volunteers. Here is the method: as §1
Blood pressure, pulse rate, and body temperature together with blood glucose levels were reported all over the study. Moreover, possible side and/or adverse reactions or events to the study formulations were recorded to assure the safety and tolerability of different drug administrations.

A short description of another data set: clinical. Particulars: human, in vivo. Here is the method: Mobile phase composition is 25 mM ammonium acetate: methanol 25:[…]. The flow rate was set at 0.7 ml/min. Injection volume was set at 2.5 ul. […] Before transferring the plasma sample to the MCX cartridge, acidification of the plasma sample with […] of (formic acid 2%) was performed. The sample was washed with 200 ul of 2% formic acid in water followed by 200 ul of methanol. […] Then 350 ul of water was added to the eluent and vortexed. After that, the diluted eluent was transferred to a vial insert, and 2.5 μl was injected into LC/MS/ MS system for analysis. […] The limit of quantification was defined considering the method sensitivity, the precision, and the accuracy. To evaluate precision and accuracy, specific quality control samples were included in the validation procedure. […] Blood samples were collected into tubes containing EDTA disodium as an anticoagulant slightly shaken and centrifuged at approximately 4000 r.p.m. for 10 min. After centrifugation, plasma samples were transferred directly into a 5 ml-plastic tube. These samples were immediately stored at the study site in a freezer at a nominal temperature - 80 °C until analysis. The label of the collecting tubes had the study's code number, subject number, study period, and the designated sample number. […] Pharmacokinetic parameters were determined and calculated. […] The pharmacokinetic analysis was performed using the SAS program. All results were expressed as mean ± SD. Paired T-Test was used to compare results, and the level of significance was considered at (P < 0.05).

[8] abbreviates: oral administration, fasting conditions.

Molecules are shown by their SMILES. A value given as a limit tells only on which side of the number the result lay.

Consider `N#C[C@@H]1C[C@@H]2C[C@@H]2N1C(=O)[C@@H](N)C12CC3CC(O)(CC(O)(C3)C1)C2` [5-hydroxy saxagliptin], for which, in data set [1], the “decrease of geometric mean AUC0-inf” value is 34% and the “decrease of geometric mean Cmax” value is recorded as 43%.
Consider `CCCc1nn(C)c2c(=O)[nH]c(-c3cc(S(=O)(=O)N4CCNCC4)ccc3OCC)nc12` [N-desmethyl metabolite], for which, in the data set on PDE5, the “in vitro potency for PDE5 relative to the parent drug” value is “approximately 50%”. Besides, in data set [2], the “bound to plasma proteins” value is recorded as 96%. In data set [3], the “plasma concentrations relative to those found for sildenafil” value is recorded as “approximately 40%” and the “terminal half-life (t1/2)” value is on record as “approximately 4 h”.
Usually AUC(0-inf) stands for the area under the concentration-time curve extrapolated to infinity. Lower therefore signals less exposure. The AUC(0-t) is exposure summed from dosing to a finite time, without extrapolation to infinity. A word on the Tmax: it is the time at which the peak concentration occurs. For `N#C[C@@H]1C[C@@H]2C[C@@H]2N1C(=O)[C@@H](N)C12CC3CC(CC(O)(C3)C1)C2` [saxagliptin], in the data set on isolated aorta rings, the “rise of NO/ONOO- rate” value is on record as “about 40%” and the “stimulation of NO release” value is on record as “about 18%”. Further, in data set [4], the mean half-life is 2.2 to 3.8 h and the “time to reach maximal plasma concentration” value is on record as less than 2 h. For the same molecule, in data set [5] (saxagliptin 5 mg + sildenafil 50 mg co-administered), the “maximum glucose concentration (Gmax)” value is 95.6 mg/dL. For the same molecule, the “maximum glucose concentration (Gmax)” value in [5] (saxagliptin 5 mg multiple doses alone) was determined as 93.7 mg/dL. Moreover, in data set [6] (co-administration of simvastatin 40 mg), the “overall systemic exposure to saxagliptin [AUCs]” value was “not affected”. The “effect on CYP3A4 activity” value in [6] (concluded from simvastatin pharmacokinetics at steady state) is on record as “neither induces nor inhibits CYP3A4 activity”. The “blood pressure and pulse rate” value in data set [7] (after co-administration of saxagliptin and sildenafil vs alone (P > 0.001)) is given as “comparable”. Moreover, the “incidence of reported headache” value in data set [7] (co-administration of saxagliptin 5 mg and sildenafil 50 mg) was determined as 44.4%. For the same molecule, the “incidence of reported headache” value in [7] (drug administered alone) came to 0%. Also, in “clinical” (5 mg), the AUC(0-inf) came to 113 ng·h/mL, the AUC(0-t) was found to be 112 ng·h/mL and the Tmax was 1.24 h.
In general, Cmax refers to the peak of the concentration-time curve. Regarding `CCCc1nn(C)c2c(=O)[nH]c(-c3cc(S(=O)(=O)N4CCN(C)CC4)ccc3OCC)nc12` [sildenafil], the “incidence of reported headache” value in data set [7] (drug administered alone) stood at 33.3%. In the data set “clinical” (50 mg), the AUC(0-t) amounted to 977 ng·h/mL, the Cmax worked out at 302 ng/mL and the Tmax came out at 0.977 h. In addition, in [3], the “absolute oral bioavailability, range” value is recorded as 25–63%; the “mean absolute oral bioavailability” value was 41%; the “mean steady-state volume of distribution” value is given as 105 L; the “terminal half-life (t1/2)” value is 3 to 5 h. In addition, the total body clearance in data set [3] is 41 L/h. In [3] (setting [8]), the “median time to Cmax” value is recorded as 60 min and the “time to maximum observed plasma concentration (Cmax)” value was 30 to 120 min.
